In patent US10874743B2, “IRAK degraders and uses thereof” (Kymera Therapeutics, Inc., priority 2017, dated 2020):

Biological target: T1, IRAK4 (Homo sapiens, UniProt Q9NWZ3)
T1 sequence (Q9NWZ3 1-460): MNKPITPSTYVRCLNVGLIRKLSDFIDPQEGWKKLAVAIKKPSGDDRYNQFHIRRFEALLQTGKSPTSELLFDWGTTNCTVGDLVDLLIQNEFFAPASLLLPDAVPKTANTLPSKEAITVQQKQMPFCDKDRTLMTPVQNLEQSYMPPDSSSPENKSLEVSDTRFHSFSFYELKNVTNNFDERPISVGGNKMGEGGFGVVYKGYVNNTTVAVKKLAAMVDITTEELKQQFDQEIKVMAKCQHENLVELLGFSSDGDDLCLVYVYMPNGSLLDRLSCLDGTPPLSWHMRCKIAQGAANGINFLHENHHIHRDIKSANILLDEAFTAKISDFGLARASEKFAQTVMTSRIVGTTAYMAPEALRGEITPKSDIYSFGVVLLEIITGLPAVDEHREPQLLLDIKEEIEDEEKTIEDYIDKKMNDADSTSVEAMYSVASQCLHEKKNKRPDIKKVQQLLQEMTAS
Assay: OCI-LY-10 degradation assay (western blot, % IRAK4 degraded after 4 hours)
Format: cell-based
Set-up: endogenous in cells; host or cells: OCI-LY10
Settings: OCI-LY10 cells, 4 hours; for OCI-LY10 % IRAK4 Degradation (0.01 uM): 0.01 uM compound; for OCI-LY10 % IRAK4 Degradation (0.1 uM): 0.1 uM compound; for OCI-LY10 % IRAK4 Degradation (1 uM): 1 uM compound
In short: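 OCI-LY10 cells (RPMI-1640, 20% FBS, 55 μM 2-ME) treated with compound at 0.003-10 μM final for 4 h at 37° C, then lysed in RIPA buffer. IRAK4 level read by fluorescent western blot (20-25 μg protein) and binned as % degraded: A >50%, B >20-50%, C <20%.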

CN(CCCc1cccc2c1C(=O)N(C1CCC(=O)NC1=O)C2=O)Cc1ccc(-n2cc(NC(=O)c3coc(-c4ccnc(NCC5CC5)c4)n3)c(C(F)F)n2)cc1 (stereo not drawn) [I-355]
OCI-LY10 % IRAK4 Degradation (0.01 uM): B (>20-50% degradation) | OCI-LY10 % IRAK4 Degradation (0.1 uM): B (>20-50% degradation) | OCI-LY10 % IRAK4 Degradation (1 uM): C (<20% degradation)

CN(CCCc1cccc2c1C(=O)N(C1CCC(=O)NC1=O)C2=O)Cc1ccc(-n2cc(NC(=O)c3coc(-c4ccncc4)n3)c(C(N)=O)n2)cc1 (stereo not drawn) [I-356]
OCI-LY10 % IRAK4 Degradation (0.01 uM): C (<20% degradation) | OCI-LY10 % IRAK4 Degradation (0.1 uM): C (<20% degradation) | OCI-LY10 % IRAK4 Degradation (1 uM): C (<20% degradation)

O=C1CCC(N2C(=O)c3cccc(CCCNCc4ccc(-n5cc(NC(=O)c6coc(-c7ccnc(NCC8CC8)c7)n6)c(C(F)F)n5)cc4)c3C2=O)C(=O)N1 (stereo not drawn) [I-357]
OCI-LY10 % IRAK4 Degradation (0.01 uM): C (<20% degradation) | OCI-LY10 % IRAK4 Degradation (0.1 uM): C (<20% degradation) | OCI-LY10 % IRAK4 Degradation (1 uM): C (<20% degradation)

NC(=O)c1nn(-c2ccc(CNCCCc3cccc4c3C(=O)N(C3CCC(=O)NC3=O)C4=O)cc2)cc1NC(=O)c1coc(-c2ccncc2)n1 (stereo not drawn) [I-358]
OCI-LY10 % IRAK4 Degradation (0.01 uM): C (<20% degradation) | OCI-LY10 % IRAK4 Degradation (0.1 uM): C (<20% degradation) | OCI-LY10 % IRAK4 Degradation (1 uM): C (<20% degradation)

O=C1CCC(N2C(=O)c3cccc(CNCc4ccc(-n5cc(NC(=O)c6coc(-c7ccncc7)n6)c(C(F)F)n5)cc4)c3C2=O)C(=O)N1 (stereo not drawn) [I-359]
OCI-LY10 % IRAK4 Degradation (0.01 uM): C (<20% degradation) | OCI-LY10 % IRAK4 Degradation (0.1 uM): C (<20% degradation) | OCI-LY10 % IRAK4 Degradation (1 uM): C (<20% degradation)

O=C1CCC(N2C(=O)c3cccc(CCCNCc4ccc(-n5cc(NC(=O)c6coc(-c7ccnc(NCC(F)(F)F)c7)n6)c(C(F)F)n5)cc4)c3C2=O)C(=O)N1 (stereo not drawn) [I-361]
OCI-LY10 % IRAK4 Degradation (0.01 uM): C (<20% degradation) | OCI-LY10 % IRAK4 Degradation (0.1 uM): C (<20% degradation) | OCI-LY10 % IRAK4 Degradation (1 uM): C (<20% degradation)

CN(CCOCCCc1cccc2c1C(=O)N(C1CCC(=O)NC1=O)C2=O)Cc1ccc(-n2cc(NC(=O)c3coc(-c4ccnc(NCC5CC5)c4)n3)c(C(F)F)n2)cc1 (stereo not drawn) [I-362]
OCI-LY10 % IRAK4 Degradation (0.01 uM): C (<20% degradation) | OCI-LY10 % IRAK4 Degradation (0.1 uM): B (>20-50% degradation) | OCI-LY10 % IRAK4 Degradation (1 uM): A (>50% degradation)

CN(CCOCCCc1cccc2c1C(=O)N(C1CCC(=O)NC1=O)C2=O)Cc1ccc(-n2cc(NC(=O)c3coc(-c4ccncc4)n3)c(C(F)F)n2)cc1 (stereo not drawn) [I-363]
OCI-LY10 % IRAK4 Degradation (0.01 uM): C (<20% degradation) | OCI-LY10 % IRAK4 Degradation (0.1 uM): C (<20% degradation) | OCI-LY10 % IRAK4 Degradation (1 uM): C (<20% degradation)

CN(CCNCCCc1cccc2c1C(=O)N(C1CCC(=O)NC1=O)C2=O)C(=O)c1ccc(-n2cc(NC(=O)c3coc(-c4ccncc4)n3)c(C(F)F)n2)cc1 (stereo not drawn) [I-364]
OCI-LY10 % IRAK4 Degradation (0.01 uM): C (<20% degradation) | OCI-LY10 % IRAK4 Degradation (0.1 uM): C (<20% degradation) | OCI-LY10 % IRAK4 Degradation (1 uM): C (<20% degradation)

CN(CCCc1cccc2c1C(=O)N(C1CCC(=O)NC1=O)C2=O)Cc1ccc(-n2cc(NC(=O)c3coc(-c4ccncc4)n3)c(C(F)F)n2)cc1 (stereo not drawn) [I-365]
OCI-LY10 % IRAK4 Degradation (0.01 uM): C (<20% degradation) | OCI-LY10 % IRAK4 Degradation (0.1 uM): C (<20% degradation) | OCI-LY10 % IRAK4 Degradation (1 uM): C (<20% degradation)

O=C1CCC(N2C(=O)c3cccc(CCCOCCNCc4ccc(-n5cc(NC(=O)c6coc(-c7ccnc(NCC8CC8)c7)n6)c(C(F)F)n5)cc4)c3C2=O)C(=O)N1 (stereo not drawn) [I-367]
OCI-LY10 % IRAK4 Degradation (0.01 uM): B (>20-50% degradation) | OCI-LY10 % IRAK4 Degradation (0.1 uM): B (>20-50% degradation) | OCI-LY10 % IRAK4 Degradation (1 uM): A (>50% degradation)

CN(CCCc1ccc2c(c1)C(=O)N(C1CCC(=O)NC1=O)C2=O)Cc1ccc(-n2cc(NC(=O)c3coc(-c4ccnc(NCC5CC5)c4)n3)c(C(F)F)n2)cc1 (stereo not drawn) [I-369]
OCI-LY10 % IRAK4 Degradation (0.01 uM): B (>20-50% degradation) | OCI-LY10 % IRAK4 Degradation (0.1 uM): B (>20-50% degradation) | OCI-LY10 % IRAK4 Degradation (1 uM): B (>20-50% degradation)

CN(CCCc1ccc2c(c1)C(=O)N(C1CCC(=O)NC1=O)C2=O)Cc1ccc(-n2cc(NC(=O)c3coc(-c4ccncc4)n3)c(C(N)=O)n2)cc1 (stereo not drawn) [I-370]
OCI-LY10 % IRAK4 Degradation (0.01 uM): C (<20% degradation) | OCI-LY10 % IRAK4 Degradation (0.1 uM): B (>20-50% degradation) | OCI-LY10 % IRAK4 Degradation (1 uM): B (>20-50% degradation)

NC(=O)c1nn(-c2ccc(CNCCCc3ccc4c(c3)C(=O)N(C3CCC(=O)NC3=O)C4=O)cc2)cc1NC(=O)c1coc(-c2ccncc2)n1 (stereo not drawn) [I-372]
OCI-LY10 % IRAK4 Degradation (0.01 uM): C (<20% degradation) | OCI-LY10 % IRAK4 Degradation (0.1 uM): C (<20% degradation) | OCI-LY10 % IRAK4 Degradation (1 uM): C (<20% degradation)

CN(CCCc1ccc2c(c1)C(=O)N(C1CCC(=O)NC1=O)C2=O)Cc1ccc(-n2cc(NC(=O)c3coc(-c4ccnc(NCC(F)(F)F)c4)n3)c(C(F)F)n2)cc1 (stereo not drawn) [I-374]
OCI-LY10 % IRAK4 Degradation (0.01 uM): C (<20% degradation) | OCI-LY10 % IRAK4 Degradation (0.1 uM): B (>20-50% degradation) | OCI-LY10 % IRAK4 Degradation (1 uM): B (>20-50% degradation)

O=C1CCC(N2C(=O)c3ccc(CCCNCc4ccc(-n5cc(NC(=O)c6coc(-c7ccnc(NCC(F)(F)F)c7)n6)c(C(F)F)n5)cc4)cc3C2=O)C(=O)N1 (stereo not drawn) [I-375]
OCI-LY10 % IRAK4 Degradation (0.01 uM): B (>20-50% degradation) | OCI-LY10 % IRAK4 Degradation (0.1 uM): B (>20-50% degradation) | OCI-LY10 % IRAK4 Degradation (1 uM): B (>20-50% degradation)

CN(CCOCCCc1ccc2c(c1)C(=O)N(C1CCC(=O)NC1=O)C2=O)Cc1ccc(-n2cc(NC(=O)c3coc(-c4ccnc(NCC5CC5)c4)n3)c(C(F)F)n2)cc1 (stereo not drawn) [I-376]
OCI-LY10 % IRAK4 Degradation (0.01 uM): B (>20-50% degradation) | OCI-LY10 % IRAK4 Degradation (0.1 uM): A (>50% degradation) | OCI-LY10 % IRAK4 Degradation (1 uM): A (>50% degradation)

CN(CCOCCCc1ccc2c(c1)C(=O)N(C1CCC(=O)NC1=O)C2=O)Cc1ccc(-n2cc(NC(=O)c3coc(-c4ccncc4)n3)c(C(F)F)n2)cc1 (stereo not drawn) [I-377]
OCI-LY10 % IRAK4 Degradation (0.01 uM): C (<20% degradation) | OCI-LY10 % IRAK4 Degradation (0.1 uM): C (<20% degradation) | OCI-LY10 % IRAK4 Degradation (1 uM): B (>20-50% degradation)

CN(CCNCCCc1ccc2c(c1)C(=O)N(C1CCC(=O)NC1=O)C2=O)C(=O)c1ccc(-n2cc(NC(=O)c3coc(-c4ccncc4)n3)c(C(F)F)n2)cc1 (stereo not drawn) [I-378]
OCI-LY10 % IRAK4 Degradation (0.01 uM): C (<20% degradation) | OCI-LY10 % IRAK4 Degradation (0.1 uM): C (<20% degradation) | OCI-LY10 % IRAK4 Degradation (1 uM): A (>50% degradation)

O=C1CCC(N2C(=O)c3ccc(CCCNCc4ccc(-n5cc(NC(=O)c6coc(-c7ccncc7)n6)c(C(F)F)n5)cc4)cc3C2=O)C(=O)N1 (stereo not drawn) [I-380]
OCI-LY10 % IRAK4 Degradation (0.01 uM): C (<20% degradation) | OCI-LY10 % IRAK4 Degradation (0.1 uM): C (<20% degradation) | OCI-LY10 % IRAK4 Degradation (1 uM): C (<20% degradation)

O=C1CCC(N2C(=O)c3ccc(CCCOCCNCc4ccc(-n5cc(NC(=O)c6coc(-c7ccncc7)n6)c(C(F)F)n5)cc4)cc3C2=O)C(=O)N1 (stereo not drawn) [I-382]
OCI-LY10 % IRAK4 Degradation (0.01 uM): C (<20% degradation) | OCI-LY10 % IRAK4 Degradation (0.1 uM): C (<20% degradation) | OCI-LY10 % IRAK4 Degradation (1 uM): B (>20-50% degradation)

O=C1CCC(N2C(=O)c3cccc(OCc4cnnn4CCOCCOCCNCn4cc(NC(=O)c5coc(-c6ccnc(NCC7CC7)c6)n5)c(C(F)F)n4)c3C2=O)C(=O)N1 (stereo not drawn) [I-383]
OCI-LY10 % IRAK4 Degradation (0.01 uM): C (<20% degradation) | OCI-LY10 % IRAK4 Degradation (0.1 uM): C (<20% degradation) | OCI-LY10 % IRAK4 Degradation (1 uM): A (>50% degradation)

O=C1CCC(N2C(=O)c3cccc(NC4CCN(CCOCCNCc5ccc(-n6cc(NC(=O)c7coc(-c8ccnc(NCC9CC9)c8)n7)c(C(F)F)n6)cc5)CC4)c3C2=O)C(=O)N1 (stereo not drawn) [I-385]
OCI-LY10 % IRAK4 Degradation (0.01 uM): C (<20% degradation) | OCI-LY10 % IRAK4 Degradation (0.1 uM): B (>20-50% degradation) | OCI-LY10 % IRAK4 Degradation (1 uM): B (>20-50% degradation)

NC(=O)c1nn(-c2ccc(C(=O)NCCOCCOCCNc3cccc4c3C(=O)N(C3CCC(=O)NC3=O)C4=O)cc2)cc1NC(=O)c1coc(-c2ccnc(C3CC3)c2)n1 (stereo not drawn) [I-424]
OCI-LY10 % IRAK4 Degradation (0.01 uM): B (>20-50% degradation) | OCI-LY10 % IRAK4 Degradation (0.1 uM): B (>20-50% degradation) | OCI-LY10 % IRAK4 Degradation (1 uM): B (>20-50% degradation)
